These results are taken from paper PMC9516243, “Design of stapled peptide-based PROTACs for MDM2/MDMX atypical degradation and tumor suppression” (Theranostics, 2022).

Several values for one entry are separate records, joined by “and”; a condition that tells them apart may be missing. Equal entries are not always repeated.

In one series the test system is α-Chymotrypsin. Put plainly: Proteolytic stability against chymotrypsin. Particulars: chymotrypsin 5 ng/μl (10 μl) added to 1 ml of 1 mM peptide, PBS 50 mM pH 7.4, 2 mM CaCl2, 25°C, HPLC, within 10 min, read-out: peptide digested within 10 min. The format is in vitro ADME. The protocol:
Peptides were dissolved in PBS (50 mM, pH = 7.4) to a final concentration of 1 mM. α-Chymotrypsin was dissolved in PBS (50 mM, containing 2 mM of CaCl2, pH = 7.4) to a final concentration of 5 ng/μl. Then the peptide solutions (1 ml) were incubated with […] (10 μl) at 25°C. Samples were taken at 0, 5, 30, 60, 90, and 120 min and reactions were quenched with 20 μL of hydrochloric acid (1 M). The solution of the trypsin peptide fragments was monitored by HPLC at different time points to determine the fraction of protease degradation.

The next series is described as follows: Pharmacokinetic study. It counts as in vivo. The note with it: mouse, iv, male ICR mice, 1.8 mg/kg single i.v. tail vein, plasma, UPLC-ESI-QqQ-MS, n = 5; for Cmax: mean; for half-life: read-out: half-life (t1/2) (converted). On the procedure: The peptides (1.8 mg/kg) were individually dosed in mice intravenously via tail vein injection and the blood samples were collected from the orbital venous plexus at 0, 0.5, 1, 2, 4, 6, 10, 24, and 48 h. All blood samples were centrifuged at 3000 rpm for 10 min, and the obtained plasma samples were immediately frozen at -80 °C until use. The standard curve was established as follows: Stock solutions of PMI-HIF1-1 and SPMI-HIF2-1 dissolved in acetonitrile were spiked into control plasma at final concentrations of 4000, 2000, 1000, 500, 250, 125, 62.5, 31.25, 15.625, 7.8125, 3.90625, 1.953125, and 0.9765625 ng/ml. […] Plasma samples (30 μL) were treated with 90 μL acetonitrile for protein precipitation. Then all samples were vortexed for 2 min and centrifuged for 15 min at 13000 rpm and 4°C. The supernatants were analyzed by ultraperformance liquid chromatography-electrospray ionization-tandem triple quadrupole mass spectrometry (UPLC-ESI-QqQ-MS, Shimadzu 8040). The system was equipped with an XBridge BEH C18 column (2.5 μm, 2.1×100 mm; Waters, Milford, MA, USA). The column temperature was set at 35°C. The injection volume was 4 μl. […] The plasma concentration at each time point was calculated from the extracted peak area of the same mass peaks of each peptide using the corresponding standard curve.

The next series in a line: circular dichroism. The note with it: phosphate buffer (PB); pH 7.2; 20 °C; 10-50 uM. (Circular dichroism is the unequal absorption of left and right circularly polarised light.)
Series [1] is described as follows: α-Helicity by CD spectroscopy. Particulars: PB pH 7.2, 10-50 µM peptide, 20°C, calculated from [θ]222. It counts as physicochemical. On the procedure:
Peptides were dissolved in PB (pH = 7.2) to concentrations ranging from 10 to 50 µM. CD spectra were obtained on a Jasco J-715 spectropolarimeter at 20°C. The spectra were collected using a 0.1 cm path length quartz cuvette with the following measurement parameters: wavelength, 185-255 nm; step resolution, 0.1 nm; speed, 20 nm/min; accumulations, 6; bandwidth, 1 nm. The helical content of each peptide was calculated as reported previously.

For a further series, the target named is T1, ^24-108MDMX (Homo sapiens, UniProt O15151).
T1 construct: ^24-108MDMX, and a fluorescently tagged p53-derived peptide
T1 sequence (O15151 24-108): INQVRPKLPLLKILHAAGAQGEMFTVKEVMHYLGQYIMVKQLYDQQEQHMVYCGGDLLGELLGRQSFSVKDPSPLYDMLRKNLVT
Put plainly: FP-based competitive binding assay. The note with it: MDMX 40 nM, fluorescently tagged p53 peptide 20 nM, PBS pH 7.4, 30 min room temperature; mean of three independent measurements. The protocol:
(§1) An FP-based competitive or binding assay was established using ^25-109MDM2, ^24-108MDMX, and a fluorescently tagged p53-derived peptide as previously described. [34]-[36] For dose-dependent competitive binding experiments, MDM2 or MDMX protein (40 nM) was first incubated with TAMRA-p53 peptide (20 nM) in PBS (pH 7.4) on a Costar 96-well plate, to which a serially diluted solution of test peptide was added to a final volume of 125 μL. After 30 min of incubation at room temperature, the FP values were measured at λex = 530 nm and λem = 580 nm on a Tecan Infinite M1000 plate reader. For binding experiments, FITC-labeled SPMI-HIF2-1 (20 nM) was incubated with different concentrations of MDM2, MDMX, and VHL proteins. Curve fitting was performed using GraphPad Prism software, and Ki values were calculated as described previously. Three replicates and three independent experiments were performed.

In another series the target is T2, ^25-109MDM2 (Homo sapiens, UniProt Q00987).
T2 construct: established using ^25-109MDM2, ^24-108MDMX
Put plainly: FP-based competitive binding assay. The note with it: MDM2 40 nM, fluorescently tagged p53 peptide 20 nM, PBS pH 7.4, 30 min room temperature; mean of three independent measurements. The protocol: as §1

The subject of the next series is HCT116 p53^+/+ cells. Briefly: Cell viability assay (CCK-8). It counts as cell-based, human. The note with it: CCK-8, 72 h incubation, absorbance 450 nm; read-out: IC50 (μM) HCT116 p53^+/+. The protocol: (§2) The human colon carcinoma cell line HCT116 p53^+/+ was obtained from the Cell Bank of the Chinese Academy of Sciences (Shanghai, China). HCT116 p53^-/- cells were generously provided by Prof. Vogelstein of Johns Hopkins University. Both cell lines were cultured in McCoy's 5A medium (Gibco, USA) containing 10% FBS, 100 units/ml penicillin, and 100 μg/ml streptomycin at 37 °C in a humidified incubator containing 5% CO2. Cell viability was measured using a Cell Counting Kit-8 (CCK-8) (Dojindo, Kumamoto, Japan) according to the manufacturer's instructions. In brief, the cells (5 × 10^3 cells/well in […] medium) were cultured for 24 h in 96-well microplates in a humidified 5% CO2 incubator at 37 °C and then treated with varying concentrations of compounds or 0.1% DMSO vehicle control.

In another series the test system is HCT116 p53^-/- cells. Put plainly: Cell viability assay (CCK-8). The format is cell-based, human. The note with it: CCK-8, 72 h incubation, absorbance 450 nm; read-out: IC50 (μM) HCT116 p53^-/-. On the procedure:
as §2

Turning to `CC(=O)N[C@H](C(=O)N[C@@H](CO)C(=O)N[C@@H](Cc1ccccc1)C(=O)N[C@@H](C)C(=O)N[C@@H](CCC(=O)O)C(=O)N[C@@H](Cc1ccc(O)cc1)C(=O)N[C@@H](Cc1c[nH]c2ccccc12)C(=O)N[C@@H](C)C(=O)N[C@@H](CC(C)C)C(=O)N[C@@H](CC(C)C)C(=O)N[C@@H](CO)C(=O)NCCOCC(=O)N[C@@H](CC(C)C)C(=O)N[C@@H](C)C(=O)N1C[C@H](O)C[C@H]1C(=O)N[C@@H](Cc1ccc(O)cc1)C(=O)N[C@@H](CCC(C)C)C(=O)N1CCC[C@H]1C(N)=O)[C@@H](C)O` [PMI-HIF1-1], the metabolised at 10 min, 1 mM with α-Chymotrypsin is greater than 80%. For the same molecule, in the series “Pharmacokinetic study”, the Cmax (commonly the maximum level reached in the sampled fluid or tissue) stood at 14700 ng/mL; the AUC(0-inf) (commonly total exposure, with the tail of the curve extrapolated) turned out to be 8600 ng·h/mL; the mean residence time (MRT) (as a rule, a mean duration of stay, worked out from the concentration-time curve) turned out to be 0.7 h; the half-life was 1.3 h. In “circular dichroism”, the helicity came to 17%. In series [1], the “α-helicity (%)” value is on record as 17%. Besides, on ^24-108MDMX, the Ki (as a rule, a dissociation constant, usually derived from enzyme kinetics or from competition with a known ligand) was 290 nM and 620 nM. In addition, affinity on ^25-109MDM2 was put at a Ki of 450 nM. Also, in the series with HCT116 p53^+/+ cells, the IC50 was greater than 100 µM. In addition, in the series with HCT116 p53^-/- cells, the IC50 is greater than 100 µM.
On to `CC(=O)N[C@H](C(=O)N[C@@H](CO)C(=O)N[C@@H](Cc1ccccc1)C(=O)N[C@]1(C)CCCCCCC=CCCC[C@@](C)(C(N)=O)NC(=O)[C@H](CC(C)C)NC(=O)[C@H](CC(C)C)NC(=O)[C@H](C)NC(=O)[C@H](Cc2c[nH]c3ccccc23)NC(=O)[C@H](Cc2ccc(O)cc2)NC(=O)[C@H](CCC(=O)O)NC1=O)[C@@H](C)O` [SPMI2], for which, in “Pharmacokinetic study”, the highest level (Cmax) was 30000 ng/mL, the area under the curve AUC(0-inf) is 78600 ng·h/mL, the MRT is 10.9 h and the half-life is 7.9 h. Also, the “α-helicity (%)” value in series [1] is reported as 5%. Moreover, at ^24-108MDMX, the inhibition constant (Ki) is 620 nM and 290 nM. Besides, the IC50 in the series with HCT116 p53^+/+ cells amounted to 28.4 µM. Further, the IC50 in the series with HCT116 p53^-/- cells is greater than 100 µM.
